Laboratory results from patent US10849867B2, “Methods and compositions for treating conditions associated with an abnormal inflammatory response” (First Wave Bio, Inc., priority 2015, dated 2020).

Legend:
[1] = test system: human LPMCs T cells; test: ΔΨm in T cells isolated from human intestine lamina propria (LPMC), TMRM with oligomycin (Example 2); type: cell-based
From the text: Objective. […] Model. Lamina propria mononuclear cells (LPMC) in the human intestine are comprised in part by T cells, which mediate physiological and pathological processes including inflammatory bowel disease. LPMCs can be isolated from human tissue biopsies. After isolation […] cells remain viable ex vivo under appropriate culture conditions for periods of time that allow ex vivo experiments. These cells can be used to investigate mechanisms that regulate their mitochondrial function and survival. They contain respiring mitochondria and as such their response to mitochondrial uncouplers such as niclosamide may be assessed. This cellular model is used in conjunction with oligomycin that blocks oxidative phosphorylation and TMRM to monitor ΔΨm as described in Example 1. Cell isolation and culture. Cells are obtained from biopsy specimens of the small or large intestine or rectum of humans from areas of normal gastrointestinal tissue or with moderate to severe Crohn's disease (CD), ulcerative colitis (UC), or celiac disease. For the isolation of lamina propria mononuclear […] specimens are initially washed in Hank's balanced salt solution (HBSS) then are cut into 0.5-cm pieces, and are incubated with stirring in pre-warmed HBSS containing 1 mM DTT at 37° C. for 15 minutes. […] The isolated cells are counted and checked for viability using 0.1% trypan blue (viability ranges from 86% to 94%). […] In addition, anti-CD3 monoclonal antibody conjugated to FITC (excitation at 494 nm with emission detected at 521 nm) is additionally added during incubation with TMRM at 37° C. for 30 minutes. […] LPMC T cells are first defined by their fluorescence emission at 521 nm resulting from labeling with FITC-anti-CD3 antibody. The n fluorescence intensity of TMRM detected at 590 nm in the T cell population is measured. Median fluorescence intensity of the TMRM signal are computed. Ratios of the median fluorescence intensity of each treated sample to the control sample mean are then calculated as a measure of relative decrease in ΔΨm. […]

[2] = test system: human LPMCs T cells; test: Pro-inflammatory cytokine producing LPMC T cells, intracellular staining flow cytometry (Example 10); type: cell-based; conditions: 5 μM, 24 h, relative to vehicle only negative control
From the text: Model: Lamina propria mononuclear cells (LPMC) in the human intestine are comprised in part by T cells which mediate pathological processes including inflammatory bowel disease. LPMCs can be isolated from human intestine tissue biopsies. After isolation […] cells remain viable ex vivo under appropriate culture conditions for periods of time that allow ex vivo experiments. These cells can be used to investigate if test agents affect their production of pro-inflammatory cytokines including interferon-gamma (IFN), tumor necrosis factor-alpha (TNF) and interleukin 17A (IL-17A), to determine if a test agent affects the pro-inflammatory cytokines that mediate inflammatory bowel disease, including UC. Cell Isolation and Culture: Cells were obtained from colon biopsy specimens of a human from areas with moderate to severe UC. For the isolation of lamina propria mononuclear […] specimens were initially washed in Hank's balanced salt solution (HBSS) then cut into 0.5-cm pieces, and incubated with stirring in pre-warmed HBSS containing 1 mM DTT at 37° C. for 15 minutes. The supernatant was removed and the sample washed with stirring with HBSS for 5 minutes twice. Samples were incubated with stirring in pre-warmed HBSS containing 5 mM EDTA for 30 minutes. The supernatant was removed and the sample washed with stirring with HBSS for 5 minutes three times. The tissue was then digested further in RPMI 1640 containing 2 mg/ml Liberase and 0.01 ug/ml DNase I for 1 hours at 37° C. with stirring. After digestion, the mononuclear cells in suspension were collected and centrifuged at 400 g for 10 minutes. After two washings in HBS, the pellet was resuspended in a 40% Percoll solution and layered on the top of a Percoll solution (100%, 60%, 40%, and 30% Percoll in HBSS). The tube was centrifuged at 400 g for 25 minutes, and LPMCs at the 60%-40% Percoll layer interface were collected. The isolated cells were counted and checked for viability using 0.1% trypan blue (viability ranged from 86% to 94%). […]

[3] = cited from earlier work

For `O=C(Nc1ccc([N+](=O)[O-])cc1Cl)c1cc(Cl)ccc1O` [Niclosamide, 5-chloro-N-(2-chloro-4-nitrophenyl)-2-hydroxybenzamide], the “change in ΔΨm in human LPMCs T cells” value ([1]; TMRM, oligomycin, relative to negative controls) was “dose-related decrease”, the “concentrations of niclosamide that decrease ΔΨm (p<0.05)” value ([1]; human LPMCs T cells, relative to negative controls) was ≥ 5 µM and the “mitochondrial uncoupling in lamina propria T cell” value ([1]; niclosamide 5 μM) was “more than 50%”. For the same compound, the “human LPMCs T cells that produce IFN” value [2] was “decrease”, the “human LPMCs T cells that produce IL-17A” value [2] was “decrease” and the “human LPMCs T cells that produce TNF” value [2] was “decrease”. The water solubility ([3]; at 20° C.) was 5 to 8 µg/mL, the solubility in acetone [3] was “soluble” and the “solubility in ether, ethanol and chloroform” value [3] was “sparingly soluble”.
